Measurements as given in ChEMBL document CHEMBL6092171, “Discovery of Propionic Acid Derivatives with a 5-THIQ Core as Potent and Orally Bioavailable Keap1-Nrf2 Protein-Protein Interaction Inhibitors for Acute Kidney Injury” (J Med Chem, 2024).

Tests used:
Assay type in all cases: ADME, organism-based; call rule not given here
[1] = Volume of distribution in Sprague-Dawley rat at 1 mg/kg, iv measured upto 24 hrs by LC-MS/MS analysis; conditions: in vivo, read-out: Vz
[2] = MRT (0 to infinity) in Sprague-Dawley rat at 5 mg/kg, po measured upto 24 hrs by LC-MS/MS analysis; conditions: in vivo
[3] = AUC (0 to t) in Sprague-Dawley rat at 5 mg/kg, po measured upto 24 hrs by LC-MS/MS analysis; conditions: in vivo
[4] = Cmax in Sprague-Dawley rat at 1 mg/kg, iv measured upto 24 hrs by LC-MS/MS analysis; conditions: in vivo
[5] = Apparent clearance during terminal phase in Sprague-Dawley rat at 5 mg/kg, po measured upto 24 hrs by LC-MS/MS analysis; conditions: in vivo
[6] = Oral bioavailability in Sprague-Dawley rat at 5 mg/kg measured upto 24 hrs by LC-MS/MS analysis; conditions: in vivo
[7] = Volume of distribution in Sprague-Dawley rat at 5 mg/kg, po measured upto 24 hrs by LC-MS/MS analysis; conditions: in vivo
[8] = Half life in Sprague-Dawley rat at 5 mg/kg, po measured upto 24 hrs by LC-MS/MS analysis; conditions: in vivo
[9] = MRT (0 to t) in Sprague-Dawley rat at 5 mg/kg, po measured upto 24 hrs by LC-MS/MS analysis; conditions: in vivo
[10] = Drug distribution in Sprague-Dawley rat kidney at 5 mg/kg, po; conditions: in vivo
[11] = MRT (0 to t) in Sprague-Dawley rat at 1 mg/kg, iv measured upto 24 hrs by LC-MS/MS analysis; conditions: in vivo
[12] = Tmax in Sprague-Dawley rat at 5 mg/kg, po measured upto 24 hrs by LC-MS/MS analysis; conditions: in vivo
[13] = MRT (0 to infinity) in Sprague-Dawley rat at 1 mg/kg, iv measured upto 24 hrs by LC-MS/MS analysis; conditions: in vivo
[14] = AUC (0 to t) in Sprague-Dawley rat at 1 mg/kg, iv measured upto 24 hrs by LC-MS/MS analysis; conditions: in vivo
[15] = Cmax in Sprague-Dawley rat at 5 mg/kg, po measured upto 24 hrs by LC-MS/MS analysis; conditions: in vivo
[16] = Half life in Sprague-Dawley rat at 1 mg/kg, iv measured upto 24 hrs by LC-MS/MS analysis; conditions: in vivo
[17] = AUC (0 to infinity) in Sprague-Dawley rat at 1 mg/kg, iv measured upto 24 hrs by LC-MS/MS analysis; conditions: in vivo
[18] = AUC (0 to infinity) in Sprague-Dawley rat at 5 mg/kg, po measured upto 24 hrs by LC-MS/MS analysis; conditions: in vivo

Q: With `COc1cc(C(CC(=O)O)c2cccc3c2CCN(C(=O)c2ccc(OC(C)C)cc2Cl)C3)cc2nnn(C)c12` (stereo not drawn) as the molecule, how does the Vd [1] read?
A: 6.49 L/kg

Q: What about the MRT inf [2] of the same molecule?
A: 1.85 h

Q: And the AUC(0-t) at 24 h [3]?
A: 265 ng·h/mL

Q: And the Cmax [4]?
A: 1640 ng/mL

Q: What about the CL/F [5] of the same molecule?
A: 383 mL/min/kg

Q: What about the bioavailability [6] of the same molecule?
A: 20%

Q: And the Vz [7]?
A: 46.52 L/kg

Q: And the half-life [8]?
A: 1.36 h

Q: And the MRT last at 24 h [9]?
A: 1.77 h

Q: And the Drug uptake [10]?
A: Active

Q: What about the MRT last at 24 h [11] of the same molecule?
A: 0.39 h

Q: And the Tmax [12]?
A: 0.29 h

Q: And the MRT inf [13]?
A: 0.44 h

Q: And the AUC(0-t) at 24 h [14]?
A: 267 ng·h/mL

Q: What about the Cmax [15] of the same molecule?
A: 186 ng/mL

Q: And the half-life [16]?
A: 1.19 h

Q: And the AUC(0-inf) [17]?
A: 268 ng·h/mL

Q: And the AUC(0-inf) [18]?
A: 266 ng·h/mL
